Experimental data taken from US5304604A, “Hydroxamic acid collagenase inhibotors” (British Bio-technology Limited, priority 1988, dated 1994).

Experiments:
[1] = biological target: T1, collagenase (Homo sapiens, UniProt P03956); experiment: Collagenase Inhibition Activity (procedure of Cawston and Barrett); format: biochemical; conditions: for IC50: acetylated 14C collagen, 37°, 16 hours, pH 7.5, read-out: IC50 (inhibitor concentration effecting 50% inhibition of the collagenase)
T1 sequence (P03956 100-469): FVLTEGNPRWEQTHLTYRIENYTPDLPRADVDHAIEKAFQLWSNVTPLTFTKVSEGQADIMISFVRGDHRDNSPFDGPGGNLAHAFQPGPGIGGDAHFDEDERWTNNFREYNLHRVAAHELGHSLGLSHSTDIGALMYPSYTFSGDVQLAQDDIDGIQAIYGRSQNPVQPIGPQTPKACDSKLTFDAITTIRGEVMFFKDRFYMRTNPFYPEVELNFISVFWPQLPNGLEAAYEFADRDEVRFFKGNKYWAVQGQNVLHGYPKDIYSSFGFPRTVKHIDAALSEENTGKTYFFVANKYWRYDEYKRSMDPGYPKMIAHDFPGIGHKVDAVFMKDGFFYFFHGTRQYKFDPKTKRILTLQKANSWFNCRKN

[2] = biological target: stromelysin (Homo sapiens, UniProt P08254); experiment: Stromelysin Inhibition Activity (procedure of Cawston et al); format: biochemical; conditions: for protoglycanase inhibiting activity, in words: protoglycanase = stromelysin (b7)
Description: The potency of compounds of general formula I to act as inhibitors of collagenase (a metalloprotease involved in tissue degradation) was determined by the procedure of Cawston and Barrett, (Anal. Biochem., 99, 340-345, 1979) and their potency to act as inhibitors of stromelysin was determined using the procedure of Cawston et al (Biochem. J., 195, 159-165 1981), both of which techniques are to be described more fully in the examples and, to the extent that the law allows, are incorporated by reference herein.

stromelysin, sequence (P08254 100-477): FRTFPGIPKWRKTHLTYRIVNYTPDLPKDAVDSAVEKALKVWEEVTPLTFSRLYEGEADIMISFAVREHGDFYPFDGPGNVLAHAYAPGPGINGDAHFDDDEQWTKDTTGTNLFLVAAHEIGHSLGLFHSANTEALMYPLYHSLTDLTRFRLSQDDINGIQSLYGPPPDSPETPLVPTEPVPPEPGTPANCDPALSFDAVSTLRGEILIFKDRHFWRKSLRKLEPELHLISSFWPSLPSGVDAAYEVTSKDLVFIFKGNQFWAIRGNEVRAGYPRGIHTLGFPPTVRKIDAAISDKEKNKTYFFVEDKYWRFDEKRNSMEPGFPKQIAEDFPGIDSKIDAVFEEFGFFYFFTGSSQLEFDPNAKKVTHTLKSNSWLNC

## CC(C)C[C@H](CC(=O)NO)C(=O)N[C@@H](Cc1ccccc1)C(=O)NCCN1CCCC1 [Example 3, [4-(N-Hydroxyamino)-2R-isobutylsuccinyl]-L-phenylalanine-N-[1-(2-aminoethyl)-pyrrolidine]amide]
[1]
  IC50: 70 nM

## CC(C)C[C@H](CC(=O)NO)C(=O)N[C@@H](Cc1ccccc1)C(=O)NCc1cccnc1 [Example 6, [4-(N-Hydroxyamino)-2R-isobutylsuccinyl]-L-phenylalanine-N-(3-aminomethylpyridine)amide]
[1]
  collagenase-inhibiting activity, in words: good
  IC50: 20 nM
[2]
  protoglycanase inhibiting activity, in words: good

## CC(C)C[C@@H](C(=O)N[C@@H](Cc1ccccc1)C(=O)NCCN1CCOCC1)[C@H](C)C(=O)NO [Example 11, [4-(N-Hydroxyamino)-2R-isobutyl-3S-methylsuccinyl]-L-phenylalanine-N-[4-(2-aminoethyl)-morpholino]amide]
[1]
  collagenase-inhibiting activity, in words: good
  IC50: 15 nM
[2]; 14C acetylated casein, 37° C., 16 hours, pH 7.5, read-out: IC50 (inhibitor concentration effecting 50% inhibition of the stromelysin)
  IC50: 50 nM
[2]
  protoglycanase inhibiting activity, in words: good
